Test results from the supplement of paper PMC10307832.

Tests used:
Assay in all cases: relative viability (nuclei count vs DMSO), 5 days (fraction); higher = more cells survive
YM155 + Foretinib = compound: COCC[n+]1c2c(n(Cc3cnccn3)c1C)C(=O)c1ccccc1C2=O [YM155] + COc1cc2c(Oc3ccc(NC(=O)C4(C(=O)Nc5ccc(F)cc5)CC4)cc3F)ccnc2cc1OCCCN1CCOCC1 [Foretinib] (partner 0.25 µM)
In short: (§1)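 One day after seeding in 1536-well plates, lung cancer cell lines were dosed by pin tool. Dosing was either single-drug or a fixed anchor-drug dose plus five library-drug doses (not always all listed) in √10 steps. After 5 days, nuclei were stained in one fix-and-stain step and counted on 4× images, and relative viability is the nuclei count of treated wells over that of vehicle wells, given as the median of duplicate plates.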

Quizartinib + AZD7762 = compound: CC(C)(C)c1cc(NC(=O)Nc2ccc(-c3cn4c(n3)sc3cc(OCCN5CCOCC5)ccc34)cc2)no1 [Quizartinib] + NC(=O)Nc1cc(-c2cccc(F)c2)sc1C(=O)N[C@H]1CCCNC1 [AZD7762] (partner 0.2 µM)
In short: as §1

YM155 + Crizotinib = compound: COCC[n+]1c2c(n(Cc3cnccn3)c1C)C(=O)c1ccccc1C2=O [YM155] + C[C@@H](Oc1cc(-c2cnn(C3CCNCC3)c2)cnc1N)c1c(Cl)ccc(F)c1Cl [Crizotinib] (partner 1 µM)
In short: as §1

Quizartinib + Olaparib = compound: CC(C)(C)c1cc(NC(=O)Nc2ccc(-c3cn4c(n3)sc3cc(OCCN5CCOCC5)ccc34)cc2)no1 [Quizartinib] + O=C(c1cc(Cc2n[nH]c(=O)c3ccccc23)ccc1F)N1CCN(C(=O)C2CC2)CC1 [Olaparib] (partner 8 µM)
In short: as §1

Row | Cell Line | relative viability (YM155 + Foretinib; first compound 0.002 µM) | relative viability (YM155 + Foretinib; first compound 0.006325 µM) | relative viability (YM155 + Foretinib; first compound 0.02 µM) | relative viability (YM155 + Foretinib; first compound 0.06325 µM) | relative viability (Quizartinib + AZD7762; first compound 0.001 µM) | relative viability (Quizartinib + AZD7762; first compound 0.003162 µM) | relative viability (Quizartinib + AZD7762; first compound 0.01 µM) | relative viability (Quizartinib + AZD7762; first compound 0.03162 µM) | relative viability (Quizartinib + AZD7762; first compound 0.1 µM) | relative viability (YM155 + Crizotinib; first compound 0.002 µM) | relative viability (YM155 + Crizotinib; first compound 0.006325 µM) | relative viability (YM155 + Crizotinib; first compound 0.02 µM) | relative viability (YM155 + Crizotinib; first compound 0.06325 µM) | relative viability (Quizartinib + Olaparib; first compound 0.001 µM) | relative viability (Quizartinib + Olaparib; first compound 0.003162 µM) | relative viability (Quizartinib + Olaparib; first compound 0.01 µM) | relative viability (Quizartinib + Olaparib; first compound 0.03162 µM) | relative viability (Quizartinib + Olaparib; first compound 0.1 µM)
1 | HCC-78 | 0.53 | 0.51 | 0.543 | 0.586 | 0.671 | 0.805 | 0.539 | 0.535 | 0.777 | 0.328 | 0.322 | 0.325 | 0.371 | 0.732 | 0.753 | 0.899 | 0.706 | 0.92
2 | HCC-366 | 0.924 | 0.899 | 0.951 | 1.11 | 0.272 | 0.181 | 0.285 | 0.119 | 0.199 | 0.519 | 0.478 | 0.612 | 0.401 | 0.324 | 0.369 | 0.332 | 0.328 | 0.389
3 | HCC-827 | 1.03 | 1.09 | 1.07 | 1.06 | 0.344 | 0.196 |  | 0.177 | 0.247 | 0.866 | 0.968 | 0.918 | 0.89 | 0.653 | 0.556 |  | 0.616 | 0.697
4 | HOP-62 | 0.979 | 1.04 | 1.17 | 1.02 | 0.639 | 0.529 | 0.554 | 0.688 | 0.463 | 0.91 | 1.01 | 0.919 | 0.983 |  | 0.322 | 0.54 | 0.619 | 0.449
5 | LC-2-ad | 0.923 | 0.967 | 0.884 | 0.666 | 0.75 | 0.835 | 0.91 | 0.883 | 0.835 | 0.446 | 0.428 | 0.496 | 0.453 | 0.697 | 0.635 | 0.757 | 0.747 | 0.86
6 | LCLC-97TM1 | 0.924 | 0.97 | 1.07 | 0.97 | 0.197 | 0.334 | 0.325 | 0.179 | 0.361 | 0.401 | 0.4 | 0.442 | 0.318 | 0.333 | 0.332 | 0.406 | 0.467 | 0.417
7 | LCLC-103H | 0.802 | 0.722 | 0.815 | 0.839 | 0.664 | 0.701 | 0.746 | 0.866 | 0.829 | 0.971 | 1.03 | 1.03 | 1 | 0.691 | 0.718 | 0.789 | 0.769 | 0.819
8 | LK-2 | 1.02 | 1.32 | 1.29 | 1.22 | 0.456 | 0.405 | 0.474 | 0.244 | 0.293 | 0.226 | 0.236 | 0.214 | 0.241 | 0.536 | 0.772 | 0.685 | 0.583 | 0.644
9 | LOU-NH91 | 0.92 | 0.98 | 1.02 | 0.937 | 0.749 | 0.768 | 0.739 | 0.722 | 0.827 | 0.735 | 0.688 | 0.731 | 0.727 | 0.87 | 0.885 | 0.931 | 0.838 | 1.01
10 | LU99A | 0.806 | 0.866 | 0.905 | 0.884 | 0.336 | 0.324 | 0.435 | 0.479 | 0.324 | 0.499 | 0.549 | 0.633 | 0.474 | 0.253 | 0.251 | 0.293 | 0.276 | 0.238
11 | LXF-289 | 1 | 1.01 | 1.02 | 0.97 | 0.816 | 1.08 | 1.09 | 1.11 | 1.12 | 0.812 | 0.787 | 0.867 | 0.684 | 0.901 | 0.987 | 1.16 | 1 | 0.992
12 | NCI-H23 | 0.643 | 0.718 | 0.959 | 0.785 | 0.302 | 0.173 | 0.277 | 0.195 | 0.25 | 0.527 | 0.607 | 0.47 | 0.234 | 0.273 | 0.269 | 0.372 | 0.279 | 0.264
13 | NCI-H322M | 1.02 | 1.08 | 0.931 | 0.981 | 0.531 | 0.56 | 0.557 | 0.531 | 0.705 | 0.822 | 0.906 | 0.949 | 0.578 | 0.769 | 0.721 | 0.739 | 0.678 | 0.825
14 | NCI-H358 | 0.653 | 0.699 | 0.736 | 0.37 | 0.578 | 0.448 | 0.555 |  | 0.5 | 0.538 | 0.594 | 0.592 | 0.214 | 0.548 | 0.6 | 0.585 |  | 0.67
15 | NCI-H441 | 0.859 | 0.636 | 0.992 | 0.43 | 0.872 | 1.04 | 1.14 | 0.991 | 1.1 | 0.676 | 0.623 | 0.694 | 0.509 | 0.441 | 0.558 | 0.646 | 0.434 | 0.683
16 | NCI-H460 | 0.957 | 1.04 | 1.01 | 0.919 |  | 0.591 | 0.648 | 0.544 | 0.621 | 1.01 | 0.803 | 0.936 | 0.84 |  | 0.377 | 0.573 | 0.336 | 0.429
17 | NCI-H596 | 0.79 | 0.833 | 0.946 | 0.829 | 1.12 | 1.07 | 1.02 | 1.04 | 1.32 |  | 0.965 | 0.997 | 0.974 | 0.728 | 0.636 | 0.732 | 0.658 | 0.717
18 | NCI-H647 | 1.21 | 1.11 | 0.981 | 0.474 | 0.39 | 0.651 | 0.422 | 0.325 | 0.566 | 1.08 | 1.31 | 1.12 | 0.755 | 0.622 | 0.507 | 0.669 | 0.499 | 0.585
